Test [1] addresses T1, human bradykinin receptor 1 (B1R) (Homo sapiens, UniProt P46663).
T1 construct: expressed in transfected cells; host or cells: CHO K1 cells
T1 sequence (P46663 1-353): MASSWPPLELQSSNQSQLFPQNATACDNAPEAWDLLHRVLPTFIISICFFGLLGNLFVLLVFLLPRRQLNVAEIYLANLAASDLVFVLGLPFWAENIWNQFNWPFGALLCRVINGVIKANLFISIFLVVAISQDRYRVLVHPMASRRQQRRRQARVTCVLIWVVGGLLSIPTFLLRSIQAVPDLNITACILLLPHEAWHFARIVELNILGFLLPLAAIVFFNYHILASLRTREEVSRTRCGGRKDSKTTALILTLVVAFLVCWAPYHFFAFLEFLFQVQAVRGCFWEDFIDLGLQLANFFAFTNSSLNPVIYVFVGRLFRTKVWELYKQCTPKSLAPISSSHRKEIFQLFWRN
Nature of the test: Functional study on the bradykinin receptor 1 (B1R), human: FLIPR Ca2+ influx assay. Format: cell-based. As to conditions: test substance 10 μM; CHO K1 cells transfected with human B1R; Lys-Des-Arg9-bradykinin at EC80; Ca2+ influx (Fluo-4, FLIPR); read-out: B1R antagonism, human [10 μM] % inhibition. The gist of the method: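 CHO K1 cells stably expressing human B1R were loaded with Fluo-4, and Ca2+ fluorescence was read on FLIPR (ex 488/em 540 nm). Compound was added first (10 μM for % activation against Lys-Des-Arg9-bradykinin ≥0.5 nM). After 10-20 min, Lys-Des-Arg9-bradykinin was added at EC80 for % inhibition; IC50 came from concentration series, n=2-3, N≥2.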

The target of test [2] is T2, bradykinin receptor 1 (B1R) of the rat (Rattus norvegicus, UniProt P97583).
T2 construct: expressed in transfected cells; host or cells: CHO K1 cells
T2 sequence (P97583 1-337): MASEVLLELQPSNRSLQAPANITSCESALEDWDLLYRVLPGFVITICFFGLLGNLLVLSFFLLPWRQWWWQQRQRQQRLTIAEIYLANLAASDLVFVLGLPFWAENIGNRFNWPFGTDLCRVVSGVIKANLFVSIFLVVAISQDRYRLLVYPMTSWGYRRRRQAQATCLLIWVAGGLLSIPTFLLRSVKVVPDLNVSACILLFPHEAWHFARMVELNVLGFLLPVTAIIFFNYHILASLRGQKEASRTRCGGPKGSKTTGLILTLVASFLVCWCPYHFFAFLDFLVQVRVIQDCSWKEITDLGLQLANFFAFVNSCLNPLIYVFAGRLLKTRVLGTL
As to the kind of experiment: Functional study on the bradykinin receptor 1 (B1R), rat: FLIPR Ca2+ influx assay. Format: cell-based. As to conditions: test substance 10 μM; CHO K1 cells transfected with rat B1R; Des-Arg9-bradykinin at EC80; Ca2+ influx (Fluo-4, FLIPR); read-out: B1R antagonism, rat [10 μM] % inhibition. The gist of the method: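 CHO K1 cells stably expressing rat B1R, Fluo-4-loaded, read on FLIPR (ex 488/em 540 nm, peak fluorescence). Test substances added first (agonism vs 10 μM Des-Arg9-bradykinin), then after 10-20 min Des-Arg9-bradykinin at EC80; % inhibition and IC50 from concentration series, n=2-3, N≥2.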

Another test addresses T3, human μ-opiate receptor (Homo sapiens, UniProt P35372).
T3 construct: purchased PerkinElmer Life Sciences, Zaventem, Belgium RB-HOM; host or cells: CHO-K1 cells (membrane preparation)
As to the kind of experiment: Affinity for the human μ-opiate receptor ([3H]-naloxone displacement, SPA). As to conditions: test substance 1 μmol/l; inhibition of specific [3H]-naloxone binding; CHO-K1 receptor membrane preparation; read-out: μ-Opioid receptor [1 μM] % inhibition. The gist of the method: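 Membranes from CHO-K1 cells expressing human μ-opiate receptor were incubated 90 min at room temperature with 1 nmol/l [3H]-naloxone and WGA-SPA beads in 50 mmol/l Tris-HCl with 0.06% BSA; non-specific binding was defined with 100 μmol/l naloxone. Percent inhibition was measured at 1 μmol/l, IC50 was derived from concentration series, and Ki was obtained by Cheng-Prusoff.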

The values below come from US8119633B2, “Substituted sulfonamide compounds” (Gruenenthal GmbH, priority 2007, dated 2012).

Each structure is given as a SMILES string.

T3 sequence (P35372 whole entry): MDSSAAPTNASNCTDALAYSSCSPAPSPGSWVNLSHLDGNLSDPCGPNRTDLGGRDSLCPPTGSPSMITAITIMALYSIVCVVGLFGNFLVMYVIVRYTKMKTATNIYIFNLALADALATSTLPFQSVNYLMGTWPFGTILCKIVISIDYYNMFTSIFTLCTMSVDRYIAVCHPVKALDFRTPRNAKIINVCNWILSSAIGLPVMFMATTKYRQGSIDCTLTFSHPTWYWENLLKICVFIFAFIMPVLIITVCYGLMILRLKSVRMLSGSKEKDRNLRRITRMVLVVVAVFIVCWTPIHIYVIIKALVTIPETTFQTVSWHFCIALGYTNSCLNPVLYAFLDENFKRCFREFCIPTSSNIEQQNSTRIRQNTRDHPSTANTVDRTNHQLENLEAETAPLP

In general, inhibition refers to the change of the read-out against control, counted positive when it falls. On to `O=C(CC1CCCN1S(=O)(=O)c1ccc(Cl)c(Cl)c1)NC1CCC(C(CCc2ccccc2)N2CCCCC2)CC1` (stereo not drawn) [Example 77, 2-(1-(3,4-dichlorophenylsulfonyl)pyrrolidin-2-yl)-N-(4-(3-phenyl-1-(piperidin-1-yl)propyl)cyclohexyl)acetamide], for which the inhibition at 10 µM in test [1] was found to be 102%; in test [2] it was 1%. Besides, at human μ-opiate receptor, the inhibition at 1 µM came to 35%.

In the case of `O=C(CC1CCCN1S(=O)(=O)c1ccc(Cl)c(Cl)c1)NC1CCC(C(CCc2ccccc2)N2CCOCC2)CC1` (stereo not drawn) [Example 78, 2-(1-(3,4-dichlorophenylsulfonyl)pyrrolidin-2-yl)-N-(4-(1-morpholino-3-phenylpropyl)cyclohexyl)acetamide], the inhibition at 10 µM in test [1] amounted to 78.3%; in test [2], 10%. The inhibition at 1 µM at human μ-opiate receptor was 18%.

On to `CN1CCN(C(c2ccccc2)C2CCC(NC(=O)CC3CCCN3S(=O)(=O)c3ccc(Cl)c(Cl)c3)CC2)CC1` (stereo not drawn) [Example 79, 2-[1-(3,4-dichloro-benzenesulfonyl)-pyrrolidin-2-yl]-N-{4-[(4-methyl-piperazin-1-yl)-phenyl-methyl]-cyclohexyl}-acetamide], for which the values for the inhibition at 10 µM in test [1] and in test [2] were 96.8% and 33%, respectively. In addition, the inhibition at 1 µM on human μ-opiate receptor turned out to be 47%.

Turning to `O=C(CC1CCCN1S(=O)(=O)c1ccc(Cl)c(Cl)c1)N1CCC(C(c2ccccc2)N2CCOCC2)CC1` (stereo not drawn) [Example 80, 2-[1-(3,4-dichloro-benzenesulfonyl)-pyrrolidin-2-yl]-1-[4-(morpholin-4-yl-phenylmethyl)-piperidin-1-yl]-ethanone], the figures for the inhibition at 10 µM in test [1] and in test [2] were 16.7% and 15%, respectively. Besides, the inhibition at 1 µM at human μ-opiate receptor was 7%.

Regarding `O=C(CC1CCCN1S(=O)(=O)c1ccc(Cl)c(Cl)c1)N1CCC(C(Cc2ccccc2)N2CCOCC2)CC1` (stereo not drawn) [Example 81, 2-(1-(3,4-dichlorophenylsulfonyl)pyrrolidin-2-yl)-1-(4-(1-morpholino-2-phenylethyl)piperidin-1-yl)ethanone], the inhibition at 10 µM amounted to 65.3% in test [1] and 56% in test [2]. The inhibition at 1 µM on human μ-opiate receptor stood at 16%.

For `O=C(CC1CCCCN1S(=O)(=O)c1ccc(Cl)c(Cl)c1)NCC1CCC(C(c2ccccc2)N2CCOCC2)CC1` (stereo not drawn) [Example 82, 2-[1-(3,4-dichloro-benzenesulfonyl)-piperidin-2-yl]-N-[4-(morpholin-4-yl-phenylmethyl)-cyclohexylmethyl]-acetamide], the inhibition at 10 µM was found to be 23.5% in test [1] and 7% in test [2]. Besides, the inhibition at 1 µM at human μ-opiate receptor was 23%.

In the case of `O=C(CC1CCCCN1S(=O)(=O)c1ccc(Cl)c(Cl)c1)NCC1CCC(C(CCc2ccccc2)N2CCOCC2)CC1` (stereo not drawn) [Example 83, 2-[1-(3,4-dichloro-benzenesulfonyl)-piperidin-2-yl]-N-[4-(1-morpholin-4-yl-3-phenyl-propyl)-cyclohexylmethyl]-acetamide], the inhibition at 10 µM in test [1] is 37%; in test [2], -3%. Moreover, at human μ-opiate receptor, the inhibition at 1 µM was determined as 22%.

On to `O=C(CC1CCCCN1S(=O)(=O)c1ccc(Cl)c(Cl)c1)NCC1CCC(C(CCc2ccccc2)N2CCCC2)CC1` (stereo not drawn) [Example 84, 2-[1-(3,4-dichloro-benzenesulfonyl)-piperidin-2-yl]-N-[4-(3-phenyl-1-pyrrolidin-1-yl-propyl)-cyclohexylmethyl]-acetamide], for which the inhibition at 10 µM in test [1] amounted to 95.4%; in test [2] it was 19%. For the same compound, the inhibition at 1 µM at human μ-opiate receptor is 90%.

As to `O=C(CC1CCCCN1S(=O)(=O)c1ccc(Cl)c(Cl)c1)NCC1CCC(C(c2ccccc2)N2CCCC2)CC1` (stereo not drawn) [Example 85, 2-[1-(3,4-dichloro-benzenesulfonyl)-piperidin-2-yl]-N-[4-(phenyl-pyrrolidin-1-ylmethyl)-cyclohexylmethyl]-acetamide], the inhibition at 10 µM came to 92.7% in test [1] and 22% in test [2]. Also, the inhibition at 1 µM at human μ-opiate receptor was found to be 95%.

For `O=C(CC1CCCCN1S(=O)(=O)c1ccc(Cl)c(Cl)c1)NC1CCC(C(CCc2ccccc2)N2CCCCC2)CC1` (stereo not drawn) [Example 86, 2-[1-(3,4-dichloro-benzenesulfonyl)-piperidin-2-yl]-N-[4-(3-phenyl-1-piperidin-1-yl-propyl)-cyclohexyl]-acetamide], the inhibition at 10 µM in test [1] was determined as 101%; in test [2], 30%. Moreover, the inhibition at 1 µM at human μ-opiate receptor amounted to 54%.

For `O=C(CC1CCCCN1S(=O)(=O)c1ccc(Cl)c(Cl)c1)NC1CCC(C(CCc2ccccc2)N2CCOCC2)CC1` (stereo not drawn) [Example 87, 2-[1-(3,4-dichloro-benzenesulfonyl)-piperidin-2-yl]-N-[4-(1-morpholin-4-yl-3-phenyl-propyl)-cyclohexyl]-acetamide], the inhibition at 10 µM was determined as 96.8% in test [1] and 25% in test [2]. In addition, the inhibition at 1 µM on human μ-opiate receptor turned out to be 38%.

With `CN1CCN(C(c2ccccc2)C2CCC(NC(=O)CC3CCCCN3S(=O)(=O)c3ccc(Cl)c(Cl)c3)CC2)CC1` (stereo not drawn) [Example 88, 2-[1-(3,4-dichloro-benzenesulfonyl)-piperidin-2-yl]-N-{4-[(4-methyl-piperazin-1-yl)-phenyl-methyl]-cyclohexyl}-acetamide], the figures for the inhibition at 10 µM in test [1] and in test [2] were 101% and 61%, respectively. For the same compound, at human μ-opiate receptor, the inhibition at 1 µM is 58%.

Take `O=C(CC1CCCCN1S(=O)(=O)c1ccc(Cl)c(Cl)c1)N1CCC(C(c2ccccc2)N2CCOCC2)CC1` (stereo not drawn) [Example 89, 2-[1-(3,4-dichloro-benzenesulfonyl)-piperidin-2-yl]-1-[4-(morpholin-4-yl-phenylmethyl)-piperidin-1-yl]-ethanone]: the figures for the inhibition at 10 µM in test [1] and in test [2] were 16.4% and 26%, respectively. Moreover, on human μ-opiate receptor, the inhibition at 1 µM is 8.5%.

Take `O=C(CC1CCCCN1S(=O)(=O)c1ccc(Cl)c(Cl)c1)N1CCC(C(Cc2ccccc2)N2CCOCC2)CC1` (stereo not drawn) [Example 90, 2-(1-(3,4-dichlorophenylsulfonyl)piperidin-2-yl)-1-(4-(1-morpholino-2-phenylethyl)piperidin-1-yl)ethanone]: the inhibition at 10 µM in test [1] was 14.4%; in test [2] it was 17%. Moreover, the inhibition at 1 µM on human μ-opiate receptor came out at 12%.

For `O=C(CC1C(=O)NCCN1S(=O)(=O)c1ccc(Cl)cc1Cl)NC1CCC(C(c2ccccc2)N2CCOCC2)CC1` (stereo not drawn) [Example 101, 2-(1-(2,4-dichlorophenylsulfonyl)-3-oxopiperazin-2-yl)-N-(4-(morpholino(phenyl)methyl)cyclohexyl)acetamide], the inhibition at 10 µM in test [1] was 104%; in test [2], 31%. On human μ-opiate receptor, the inhibition at 1 µM came out at 4%.

Regarding `O=C(CC1C(=O)NCCN1S(=O)(=O)c1ccc(Cl)cc1Cl)NC1CCC(C(c2ccccc2)N2CCCC2)CC1` (stereo not drawn) [Example 102, 2-(1-(2,4-dichlorophenylsulfonyl)-3-oxopiperazin-2-yl)-N-(4-(phenyl(pyrrolidin-1-yl)methyl)cyclohexyl)acetamide], the inhibition at 10 µM in test [1] is 104%; in test [2], 12%. For the same compound, at human μ-opiate receptor, the inhibition at 1 µM turned out to be 35%.

`O=C(CC1C(=O)Nc2ccccc2N1S(=O)(=O)c1ccc(Cl)c(Cl)c1)NC1CCC(C(c2ccccc2)N2CCCC2)CC1` (stereo not drawn) [Example 103, 2-(1-(3,4-dichlorophenylsulfonyl)-3-oxo-1,2,3,4-tetrahydroquinoxalin-2-yl)-N-(4-(phenyl(pyrrolidin-1-yl)methyl)cyclohexyl)acetamide]: the inhibition at 10 µM in test [1] came to 103%; in test [2], 37%. Also, at human μ-opiate receptor, the inhibition at 1 µM is 71%.
